# Measurements: US20050197350A1, “Novel quinoline, tetrahydroquinazoline, and pyrimidine derivatives and methods of treatment related to the use thereof” (TAISHO PHARMACEUTICAL CO., LTD., priority 2003, published 2005)
# Tested on: MCH receptors
# Experiment: MCH receptor activity class (method not given)
# Conditions: class by percent of control at 10^-7 M or IC50
row,Compound,class
1,Cc1cccc(CNC(=O)N[C@H]2CC[C@@H](Nc3nc4c(c(N(C)C)n3)CCCC4)CC2)c1 [compound 1836],3 (Class 3 The value of percent of control at 10^−7 M was more than 60% or the value of IC50 was more than 200 nM.)
2,CCCNC(=O)N[C@H]1CC[C@@H](Nc2nc3c(c(N(C)C)n2)CCCC3)CC1 [compound 1837],3 (Class 3 The value of percent of control at 10^−7 M was more than 60% or the value of IC50 was more than 200 nM.)
3,CN(C)c1nc(N[C@H]2CC[C@@H](NC(=O)Nc3cccc(C(F)(F)F)c3)CC2)nc2c1CCCC2 [compound 1838],3 (Class 3 The value of percent of control at 10^−7 M was more than 60% or the value of IC50 was more than 200 nM.)
4,CCO[Si](CCCNC(=O)N[C@H]1CC[C@@H](Nc2nc3c(c(N(C)C)n2)CCCC3)CC1)(OCC)OCC [compound 1839],3 (Class 3 The value of percent of control at 10^−7 M was more than 60% or the value of IC50 was more than 200 nM.)
5,Cc1cccc(NC(=O)N[C@H]2CC[C@@H](Nc3nc4c(c(N(C)C)n3)CCCC4)CC2)c1 [compound 1840],3 (Class 3 The value of percent of control at 10^−7 M was more than 60% or the value of IC50 was more than 200 nM.)
6,Cc1ccc(NC(=O)N[C@H]2CC[C@@H](Nc3nc4c(c(N(C)C)n3)CCCC4)CC2)cc1Cl [compound 1841],3 (Class 3 The value of percent of control at 10^−7 M was more than 60% or the value of IC50 was more than 200 nM.)
7,CC(NC(=O)NC1CCC(Nc2nc3c(c(N(C)C)n2)CCCC3)CC1)c1cccc2ccccc12 (centres unmarked) [compound 1842],3 (Class 3 The value of percent of control at 10^−7 M was more than 60% or the value of IC50 was more than 200 nM.)
8,CN(C)c1nc(N[C@H]2CC[C@@H](NC(=O)Nc3ccccc3OC(F)F)CC2)nc2c1CCCC2 [compound 1843],3 (Class 3 The value of percent of control at 10^−7 M was more than 60% or the value of IC50 was more than 200 nM.)
9,COC(=O)c1ccccc1NC(=O)N[C@H]1CC[C@@H](Nc2nc3c(c(N(C)C)n2)CCCC3)CC1 [compound 1844],3 (Class 3 The value of percent of control at 10^−7 M was more than 60% or the value of IC50 was more than 200 nM.)
10,CSc1ccccc1NC(=O)N[C@H]1CC[C@@H](Nc2nc3c(c(N(C)C)n2)CCCC3)CC1 [compound 1845],3 (Class 3 The value of percent of control at 10^−7 M was more than 60% or the value of IC50 was more than 200 nM.)
11,CN(C)c1nc(N[C@H]2CC[C@@H](NC(=O)Nc3cc(Cl)c(Cl)cc3Cl)CC2)nc2c1CCCC2 [compound 1846],2 (Class 2: The value of percent of control at 10^−7 M was from 40% to 60% or the value of IC′50 was from 50 nM to 200 nM.)
12,Cc1ccc(NC(=O)N[C@H]2CC[C@@H](Nc3nc4c(c(N(C)C)n3)CCCC4)CC2)c(C)c1 [compound 1847],3 (Class 3 The value of percent of control at 10^−7 M was more than 60% or the value of IC50 was more than 200 nM.)
13,CN(C)c1nc(N[C@H]2CC[C@@H](NC(=O)Nc3cc(F)ccc3F)CC2)nc2c1CCCC2 [compound 1848],3 (Class 3 The value of percent of control at 10^−7 M was more than 60% or the value of IC50 was more than 200 nM.)
14,"COc1ccc(OC)c(NC(=O)N[C@H]2CC[C@@H](Nc3nc4c(c(N(C)C)n3)CCCC4)CC2)c1 [compound 1849, N-(2,5-dimethoxyphenyl)-N′-(cis-4-{[4-(dimethylamino)-5,6,7,8-tetrahydroquinazolin-2-yl]amino}cyclohexyl)urea]",2 (Class 2: The value of percent of control at 10^−7 M was from 40% to 60% or the value of IC′50 was from 50 nM to 200 nM.)
15,Cc1ccc(C)c(NC(=O)N[C@H]2CC[C@@H](Nc3nc4c(c(N(C)C)n3)CCCC4)CC2)c1 [compound 1850],3 (Class 3 The value of percent of control at 10^−7 M was more than 60% or the value of IC50 was more than 200 nM.)
16,CN(C)c1nc(N[C@H]2CC[C@@H](NC(=O)Nc3ccccc3Cc3ccccc3)CC2)nc2c1CCCC2 [compound 1851],3 (Class 3 The value of percent of control at 10^−7 M was more than 60% or the value of IC50 was more than 200 nM.)
17,CN(C)c1nc(N[C@H]2CC[C@@H](NC(=O)Nc3c(F)cc(F)cc3Br)CC2)nc2c1CCCC2 [compound 1852],3 (Class 3 The value of percent of control at 10^−7 M was more than 60% or the value of IC50 was more than 200 nM.)
18,CN(C)c1nc(N[C@H]2CC[C@@H](NC(=O)Nc3ccc(C(F)(F)F)cc3Cl)CC2)nc2c1CCCC2 [compound 1853],3 (Class 3 The value of percent of control at 10^−7 M was more than 60% or the value of IC50 was more than 200 nM.)
19,CN(C)c1nc(N[C@H]2CC[C@@H](NC(=O)Nc3ccc([N+](=O)[O-])cc3Cl)CC2)nc2c1CCCC2 [compound 1854],3 (Class 3 The value of percent of control at 10^−7 M was more than 60% or the value of IC50 was more than 200 nM.)
20,CN(C)c1nc(N[C@H]2CC[C@@H](NC(=O)Nc3cc(C(F)(F)F)ccc3Cl)CC2)nc2c1CCCC2 [compound 1855],3 (Class 3 The value of percent of control at 10^−7 M was more than 60% or the value of IC50 was more than 200 nM.)
21,Cc1ccc(Cl)c(NC(=O)N[C@H]2CC[C@@H](Nc3nc4c(c(N(C)C)n3)CCCC4)CC2)c1 [compound 1856],3 (Class 3 The value of percent of control at 10^−7 M was more than 60% or the value of IC50 was more than 200 nM.)

row,Compound,class
1,CCOC(=O)c1ccccc1NC(=O)N[C@H]1CC[C@@H](Nc2nc3c(c(N(C)C)n2)CCCC3)CC1 [compound 1857],3 (Class 3 The value of percent of control at 10^−7 M was more than 60% or the value of IC50 was more than 200 nM.)
2,CN(C)c1nc(N[C@H]2CC[C@@H](NC(=O)Nc3cccc(C(F)(F)F)c3F)CC2)nc2c1CCCC2 [compound 1858],3 (Class 3 The value of percent of control at 10^−7 M was more than 60% or the value of IC50 was more than 200 nM.)
3,CN(C)c1nc(N[C@H]2CC[C@@H](NC(=O)Nc3cc(C(F)(F)F)ccc3F)CC2)nc2c1CCCC2 [compound 1859],3 (Class 3 The value of percent of control at 10^−7 M was more than 60% or the value of IC50 was more than 200 nM.)
4,Cc1ccc(F)c(NC(=O)N[C@H]2CC[C@@H](Nc3nc4c(c(N(C)C)n3)CCCC4)CC2)c1 [compound 1860],3 (Class 3 The value of percent of control at 10^−7 M was more than 60% or the value of IC50 was more than 200 nM.)
5,COc1cc([N+](=O)[O-])ccc1NC(=O)N[C@H]1CC[C@@H](Nc2nc3c(c(N(C)C)n2)CCCC3)CC1 [compound 1861],3 (Class 3 The value of percent of control at 10^−7 M was more than 60% or the value of IC50 was more than 200 nM.)
6,COc1ccc([N+](=O)[O-])cc1NC(=O)N[C@H]1CC[C@@H](Nc2nc3c(c(N(C)C)n2)CCCC3)CC1 [compound 1862],3 (Class 3 The value of percent of control at 10^−7 M was more than 60% or the value of IC50 was more than 200 nM.)
7,CN(C)c1nc(N[C@H]2CC[C@@H](NC(=O)Nc3ccc4ccccc4c3)CC2)nc2c1CCCC2 [compound 1863],3 (Class 3 The value of percent of control at 10^−7 M was more than 60% or the value of IC50 was more than 200 nM.)
8,CN(C)c1nc(N[C@H]2CC[C@@H](NC(=O)Nc3ccccc3Oc3ccccc3)CC2)nc2c1CCCC2 [compound 1864],3 (Class 3 The value of percent of control at 10^−7 M was more than 60% or the value of IC50 was more than 200 nM.)
9,CSc1cccc(NC(=O)N[C@H]2CC[C@@H](Nc3nc4c(c(N(C)C)n3)CCCC4)CC2)c1 [compound 1865],3 (Class 3 The value of percent of control at 10^−7 M was more than 60% or the value of IC50 was more than 200 nM.)
10,CN(C)c1nc(N[C@H]2CC[C@@H](NC(=O)Nc3cccc(SC(F)(F)F)c3)CC2)nc2c1CCCC2 [compound 1866],3 (Class 3 The value of percent of control at 10^−7 M was more than 60% or the value of IC50 was more than 200 nM.)
11,CN(C)c1nc(N[C@H]2CC[C@@H](NC(=O)NCc3ccc(Cl)c(Cl)c3)CC2)nc2c1CCCC2 [compound 1867],3 (Class 3 The value of percent of control at 10^−7 M was more than 60% or the value of IC50 was more than 200 nM.)
12,COc1cc(NC(=O)N[C@H]2CC[C@@H](Nc3nc4c(c(N(C)C)n3)CCCC4)CC2)cc(OC)c1 [compound 1868],3 (Class 3 The value of percent of control at 10^−7 M was more than 60% or the value of IC50 was more than 200 nM.)
13,Cc1cc(C)cc(NC(=O)N[C@H]2CC[C@@H](Nc3nc4c(c(N(C)C)n3)CCCC4)CC2)c1 [compound 1869],3 (Class 3 The value of percent of control at 10^−7 M was more than 60% or the value of IC50 was more than 200 nM.)
14,COC(=O)c1cccc(NC(=O)N[C@H]2CC[C@@H](Nc3nc4c(c(N(C)C)n3)CCCC4)CC2)c1 [compound 1870],3 (Class 3 The value of percent of control at 10^−7 M was more than 60% or the value of IC50 was more than 200 nM.)
15,CCc1cccc(NC(=O)N[C@H]2CC[C@@H](Nc3nc4c(c(N(C)C)n3)CCCC4)CC2)c1 [compound 1871],3 (Class 3 The value of percent of control at 10^−7 M was more than 60% or the value of IC50 was more than 200 nM.)
16,CN(C)c1nc(N[C@H]2CC[C@@H](NC(=O)Nc3cc(F)cc(C(F)(F)F)c3)CC2)nc2c1CCCC2 [compound 1872],3 (Class 3 The value of percent of control at 10^−7 M was more than 60% or the value of IC50 was more than 200 nM.)
17,CN(C)c1nc(N[C@H]2CC[C@@H](NC(=O)NCc3cccc(F)c3)CC2)nc2c1CCCC2 [compound 1873],3 (Class 3 The value of percent of control at 10^−7 M was more than 60% or the value of IC50 was more than 200 nM.)
18,CN(C)c1nc(N[C@H]2CC[C@@H](NC(=O)Nc3cccc([N+](=O)[O-])c3)CC2)nc2c1CCCC2 [compound 1874],3 (Class 3 The value of percent of control at 10^−7 M was more than 60% or the value of IC50 was more than 200 nM.)
19,CN(C)c1nc(N[C@H]2CC[C@@H](NC(=O)Nc3cccc(Oc4ccccc4)c3)CC2)nc2c1CCCC2 [compound 1875],3 (Class 3 The value of percent of control at 10^−7 M was more than 60% or the value of IC50 was more than 200 nM.)
20,CN(C)c1nc(N[C@H]2CC[C@@H](NC(=O)Nc3ccc(OC(F)F)cc3)CC2)nc2c1CCCC2 [compound 1876],3 (Class 3 The value of percent of control at 10^−7 M was more than 60% or the value of IC50 was more than 200 nM.)
